Results published in patent US20090105217A1, “2-PHENYL-5-AMINO-1,3,4-OXADIAZOLES AND THEIR USE AS NICOTINIC ACETYLCHOLINE RECEPTOR LIGANDS” (priority 2007, published 2009).

Each compound was assayed against T1, human α7 nAChR (Homo sapiens, UniProt P36544) (assay: α7 nAChR FLIPR (Fluorometric Imaging Plate Reader) Ca2+ assay, agonist EC50). Conditions: GH4C1 cells stably transfected with human α7 nAChR; Fluo-4 Ca2+ fluorescence; Examples 194 to 205 tested as the HCl salt; read-out: pEC50 value (negative logarithm of the agonist EC50) (converted).
T1 construct: host or cells: GH4C1 cells (pituitary tumor, immortalized cell line)
T1 sequence (P36544 23-502): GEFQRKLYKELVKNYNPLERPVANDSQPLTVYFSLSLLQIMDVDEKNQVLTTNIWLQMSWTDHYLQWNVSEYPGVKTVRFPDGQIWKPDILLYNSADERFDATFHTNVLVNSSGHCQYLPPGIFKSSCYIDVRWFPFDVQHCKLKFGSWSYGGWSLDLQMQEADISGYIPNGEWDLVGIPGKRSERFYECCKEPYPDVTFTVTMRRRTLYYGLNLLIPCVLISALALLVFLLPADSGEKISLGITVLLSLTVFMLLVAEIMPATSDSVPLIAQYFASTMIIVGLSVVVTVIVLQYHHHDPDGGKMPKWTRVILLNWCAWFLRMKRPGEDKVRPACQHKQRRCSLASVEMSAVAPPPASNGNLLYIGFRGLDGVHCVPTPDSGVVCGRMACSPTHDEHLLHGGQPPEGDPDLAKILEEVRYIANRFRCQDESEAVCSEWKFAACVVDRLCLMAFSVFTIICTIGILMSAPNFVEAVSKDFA
Type: cell-based
Method in brief: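 GH4C1 cells stably expressing human α7 nAChR, loaded with 2 μM Fluo-4 for 45–60 min at 37 °C in HEPES buffer pH 7.3 with 2 mM CaCl2 and 2.5 mM probenecid. Peak calcium fluorescence (ex 488, em 510–580 nm) after compound addition fitted for agonist EC50, reported as pEC50.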

EC50, ≤ 1 µM:
O=C(Nc1ccc(-c2nnc(NCCCN3CCOCC3)o2)cc1)c1cccc(F)c1 [Example 195, 3-Fluoro-N-[4-(5-{[3-(4-morpholinyl)propyl]amino}-1,3,4-oxadiazol-2-yl)phenyl]benzamide]
CCCC(=O)Nc1ccc(-c2nnc(NCCCN3CCOCC3)o2)c(OC)c1 [Example 199, N-[3-(Methyloxy)-4-(5-{[3-(4-morpholinyl)propyl]amino}-1,3,4-oxadiazol-2-yl)phenyl]butanamide]
CCCC(=O)Nc1ccc(-c2nnc(NCCCN(CC)CC)o2)c(OC)c1 [Example 200, N-[4-(5-{[3-(Diethylamino)propyl]amino}-1,3,4-oxadiazol-2-yl)-3-(methyloxy)phenyl]butanamide]
CCN(CC)CCCNc1nnc(-c2ccc(NC(=O)c3ccc(F)cc3)cc2OC)o1 [Example 202, N-[4-(5-{[3-(Diethylamino)propyl]amino}-1,3,4-oxadiazol-2-yl)-3-(methyloxy)phenyl]-4-fluorobenzamide]
CCN(CC)CCCNc1nnc(-c2ccc(NC(=O)c3cccc(F)c3)cc2OC)o1 [Example 203, N-[4-(5-{[3-(Diethylamino)propyl]amino}-1,3,4-oxadiazol-2-yl)-3-(methyloxy)phenyl]-3-fluorobenzamide]
COc1cc(NC(=O)c2cccc(F)c2)ccc1-c1nnc(NCCCN2CCOCC2)o1 [Example 204, 3-Fluoro-N-[3-(methyloxy)-4-(5-{[3-(4-morpholinyl)propyl]amino}-1,3,4-oxadiazol-2-yl)phenyl]benzamide]
CCN(CC)CCCNc1nnc(-c2ccc(NC(=O)c3cccc(F)c3)cc2)o1 [Example 209, N-[4-(5-{[3-(diethylamino)propyl]amino}-1,3,4-oxadiazol-2-yl)phenyl]-3-fluorobenzamidetrifluoroacetate]
CCN(CC)CCCNc1nnc(-c2ccc(NC(=O)c3ccc(OC)cc3)cc2OC)o1 [Example 225, N-[4-(5-{[3-(diethylamino)propyl]amino}-1,3,4-oxadiazol-2-yl)-3-(methyloxy)phenyl]-4-(methyloxy)benzamidetrifluoroacetate]
COc1cc(NC(=O)c2c(F)cccc2F)ccc1-c1nnc(NCCCN2CCOCC2)o1 [Example 226, 2,6-difluoro-N-[3-(methyloxy)-4-(5-{[3-(4-morpholinyl)propyl]amino}-1,3,4-oxadiazol-2-yl)phenyl]benzamidetrifluoroacetate]
COc1cc(NC(=O)CC(C)C)ccc1-c1nnc(NCCCN2CCOCC2)o1 [Example 229, 3-methyl-N-[3-(methyloxy)-4-(5-{[3-(4-morpholinyl)propyl]amino}-1,3,4-oxadiazol-2-yl)phenyl]butanamidetrifluoroacetate]
CCN(CC)CCCNc1nnc(-c2ccc(NC(=O)CC(C)C)cc2OC)o1 [Example 230, N-[4-(5-{[3-(diethylamino)propyl]amino}-1,3,4-oxadiazol-2-yl)-3-(methyloxy)phenyl]-3-methylbutanamidetrifluoroacetate]
CCN(CC)CCCNc1nnc(-c2ccc(NC(=O)C3CC3)cc2OC)o1 [Example 231, N-[4-(5-{[3-(diethylamino)propyl]amino}-1,3,4-oxadiazol-2-yl)-3-(methyloxy)phenyl]cyclopro-panecarboxamidetrifluoroacetate]
COc1cc(NC(=O)C2CCCC2)ccc1-c1nnc(NCCCN2CCOCC2)o1 [Example 234, N-[3-(methyloxy)-4-(5-{[3-(4-morpholinyl)propyl]amino}-1,3,4-oxadiazol-2-yl)phenyl]cyclopentane-carboxamidetrifluoroacetate]
CCN(CC)CCCNc1nnc(-c2ccc(NC(=O)C3CCCC3)cc2OC)o1 [Example 235, N-[4-(5-{[3-(diethylamino)propyl]amino}-1,3,4-oxadiazol-2-yl)-3-(methyloxy)phenyl]cyclo-pentanecarboxamidetrifluoroacetate]

Same assay, conditions: alpha 7 assay described in the Examples

Activity in the alpha 7 assay, not found to have activity:
CN(C)CCCN(C)c1nnc(-c2ccc(NC(=O)c3ccccc3F)cc2)o1 [N-(4-{5-[[3-(dimethylamino)propyl](methyl)amino]-1,3,4-oxadiazol-2-yl}phenyl)-2-fluorobenzamide]
O=C(Nc1ccc(-c2nnc(NCCCN3CCCC(F)(F)C3)o2)cc1)c1ccccc1F [N-[4-(5-{[3-(3,3-difluoro-1-piperidinyl)propyl]amino}-1,3,4-oxadiazol-2-yl)phenyl]-2-fluorobenzamide]
CCN(CC)CCCNc1nnc(-c2ccc(NC(=O)c3ccc(OC)cc3)cc2)o1 [N-[4-(5-{[3-(Diethylamino)propyl]amino}-1,3,4-oxadiazol-2-yl)phenyl]-4-(methyloxy)benzamide]
CCCN(CCC)CCCNc1nnc(-c2ccc(NC(=O)c3ccccc3F)cc2)o1 [N-[4-(5-{[3-(dipropylamino)propyl]amino}-1,3,4-oxadiazol-2-yl)phenyl]-2-fluorobenzamide]
